Usually Ki stands for the dissociation constant of the complex between target and ligand, obtained from inhibition or displacement.

For series [1], the target named is T1, human dopamine D1 receptor (Homo sapiens, UniProt P21728).
T1 construct: expressed in transfected cells; host or cells: HEK293T cells, transient transfection
As to the kind of experiment: Competition binding, [3H]SCH23390, HEK293T membranes. As to conditions: read-out: Ki value D1.

Series [2] has as its target T2, human serotonin 5-HT2A receptor (Homo sapiens, UniProt P28223).
T2 construct: expressed in transfected cells; host or cells: HEK293T cells, transient transfection
Nature of the series: Competition binding, [3H]ketanserin, HEK293T membranes. To be noted: ± SD of two experiments.

The target of series [3] is T3, human adrenergic α2A receptor (Homo sapiens, UniProt P08913).
T3 construct: expressed in transfected cells; host or cells: HEK293T cells, transient transfection
T3 sequence (P08913 1-465): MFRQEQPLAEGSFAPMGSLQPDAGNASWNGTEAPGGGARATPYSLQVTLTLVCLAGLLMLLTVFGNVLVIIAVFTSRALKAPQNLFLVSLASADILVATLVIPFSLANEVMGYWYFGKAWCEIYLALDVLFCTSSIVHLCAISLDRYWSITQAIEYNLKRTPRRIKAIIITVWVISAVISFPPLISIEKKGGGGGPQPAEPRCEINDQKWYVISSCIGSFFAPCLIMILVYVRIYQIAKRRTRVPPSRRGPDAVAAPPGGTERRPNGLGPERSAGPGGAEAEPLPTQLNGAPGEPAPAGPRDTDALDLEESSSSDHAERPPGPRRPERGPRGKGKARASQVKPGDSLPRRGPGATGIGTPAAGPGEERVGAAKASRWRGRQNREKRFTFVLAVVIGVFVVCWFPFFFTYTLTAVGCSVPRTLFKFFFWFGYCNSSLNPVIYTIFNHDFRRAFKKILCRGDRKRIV
As to the kind of experiment: Competition binding, [3H]RX821002, HEK293T membranes. To be noted: [3H]RX821002; ± SD of two experiments.

Series [4] deals with T4, human adrenergic β2 receptor (Homo sapiens, UniProt P07550).
T4 construct: expressed in transfected cells; host or cells: HEK293T cells, transient transfection
Nature of the series: Competition binding, [3H]CGP12177, HEK293T membranes. As to conditions: ± SD of two experiments.

A further series deals with D2 and D3 receptors. Nature of the series: Radioligand binding, summary over D2 and D3 subtypes. More on the design: species or system human.
For series [5], the target named is T5, human serotonin 5-HT1A receptor (Homo sapiens, UniProt P08908).
T5 construct: expressed in transfected cells; host or cells: HEK293T cells, transient transfection
T5 sequence (P08908 1-422): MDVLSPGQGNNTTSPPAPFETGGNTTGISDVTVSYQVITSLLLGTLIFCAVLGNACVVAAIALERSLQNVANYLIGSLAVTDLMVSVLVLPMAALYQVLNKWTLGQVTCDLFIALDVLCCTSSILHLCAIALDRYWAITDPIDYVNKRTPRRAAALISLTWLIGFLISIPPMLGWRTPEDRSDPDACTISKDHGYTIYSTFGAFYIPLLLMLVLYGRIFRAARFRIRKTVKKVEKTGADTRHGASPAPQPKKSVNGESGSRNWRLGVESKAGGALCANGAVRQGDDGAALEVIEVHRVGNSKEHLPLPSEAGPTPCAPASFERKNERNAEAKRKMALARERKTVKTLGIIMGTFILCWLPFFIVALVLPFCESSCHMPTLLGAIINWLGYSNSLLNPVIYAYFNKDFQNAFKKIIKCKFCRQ
As to the kind of experiment: Competition binding, [3H]WAY600135, HEK293T membranes. To be noted: ± SD of two experiments.

In series [6] the target is T6, human dopamine D5 receptor (Homo sapiens, UniProt P21918).
T6 construct: expressed in transfected cells; host or cells: HEK293T cells, transient transfection
Nature of the series: Competition binding, [3H]SCH23390, HEK293T membranes.

Series [7] in a line: Quantum yield determination of uncaging (365 nm LED). The series is classed as physicochemical. As to conditions: for quantum yield φ for photolytic liberation of dechloroeticlopride: 365 nm; for quantum yield ϕ: 0.1 mM in aqueous buffer; for quantum yield ϕ / yield of liberated dechloroeticlopride: 365 nm LED. As to the method:
Quantum yield determination. Quantum yields were determined in the following setup: translation stages (horizontal and vertical): Thorlabs DT 25/M or DT S25/M; photographic lens with f = 50 mm; magnetic stirrer: Faulhaber motor (1524B024S R) with 14:1 gear (15A); PS19Q power sensor from Coherent; PowerMax software; adjustable power supply “Basetech BT-153 0-15 V/DC 0-3 A 45 W” [2].
Measurements were performed in a covered apparatus to minimize the influence of ambient light. A 10 mm Hellma® quartz fluorescence cuvette with solvent (aqueous buffer solution, 2 ml) and a stirring bar was placed in the beam of a 365 nm LED and the transmitted power (Pref = 4.40 mW) was measured by a calibrated photodiode horizontal to the cuvette. The content of the cuvette was changed to a 0.1 mM solution of the respective caged compound in aqueous buffer (2 ml) with a stirring bar. The transmitted power was measured analogously to the blank solution. The sample was further irradiated and the transmitted power as well as the respective yield of liberated benzamide dechloroeticlopride was recorded after different times. The quantum yield was then calculated with the following […]
ϕ = N௉ = c௉ ∙ V ∙N஺ ∙ h ∙c
ϕ = quantum yield h = Planck constant
N௉ = number of product molecules formed c = speed of light
N௉௛.௔௕௦. = number of absorbed photons P௔௕௦. = radiant power absorbed
c௉ = product concentration ∆t = irradiation time
V = sample volume λ = irradiation wavelength […]
entry compound irradiation time Pabs. yield ϕ

Series [8] addresses T7, D2S receptor (HEK293T cells co-transfected with D2S and Gαqi) (Homo sapiens, UniProt P14416).
T7 construct: expressed in transfected cells; host or cells: HEK-293T cells, transient co-transfection
Nature of the series: Photoactivation by direct irradiation of the cellular test system, quinpirole mediated IP accumulation. To be noted: buffer and compound irradiated at 365 nm for 10 or 20 sec. The series is classed as cell-based. From the text:
[…]. Mean curves ± SEM of 4–9 individual curves each done in triplicates. […]. Mean curves from 3–4 experiments each done in duplicate. […]. While 4 (MG307) (green bars) is completely released after 10 sec, the uncaging of 5 (red bars) needs 20 sec. […]. Mean bars ± SEM derived from 3–11 individual experiments each done in quintuplicates. Irradiation with a solution of test compound before addition to the cellular test system. […]. Means ± SEM from 6 experiments in quintuplicates.
[…]. Actually, we observed an onset of a strong inverse agonist effect on quinpirole-induced IP accumulation after irradiation of the nitrobenzyl-caged compound 4 (MG307). […] […]. […] To complement uncaging of the test compounds by irradiation of the test compounds before addition to receptor by a biologically more significant experiment, we investigated whether uncaging can also be accomplished directly in the cellular system. […] In fact, quinpirole-promoted IP accumulation was substantially attenuated after irradiation for 10 or 20 sec. […] […]. […] […].
HEK293T cells were transiently co-transfected with D2S and Gαqi. Solutions of the test compounds were irradiated at λ = 365 nm using the same LED as for the photochemistry experiments (see above) for 2, 5, 10 or 20 sec and the test compound was added to the cell system immediately after illumination. […]. Accumulation of IP was determined as described above. […]. […]

T7 sequence (P14416 1-414 isoform P14416-2): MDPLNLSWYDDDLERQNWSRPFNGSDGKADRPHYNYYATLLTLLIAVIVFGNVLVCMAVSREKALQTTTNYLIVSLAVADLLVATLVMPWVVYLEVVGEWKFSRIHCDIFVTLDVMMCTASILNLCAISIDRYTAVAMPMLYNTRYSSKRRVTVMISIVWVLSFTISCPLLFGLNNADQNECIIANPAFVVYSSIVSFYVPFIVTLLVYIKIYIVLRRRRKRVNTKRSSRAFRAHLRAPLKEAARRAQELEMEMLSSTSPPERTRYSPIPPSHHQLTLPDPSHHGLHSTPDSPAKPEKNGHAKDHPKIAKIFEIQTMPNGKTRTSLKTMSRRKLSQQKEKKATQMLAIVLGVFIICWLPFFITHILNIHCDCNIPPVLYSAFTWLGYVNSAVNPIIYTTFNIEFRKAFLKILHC
T1 sequence (P21728 whole entry): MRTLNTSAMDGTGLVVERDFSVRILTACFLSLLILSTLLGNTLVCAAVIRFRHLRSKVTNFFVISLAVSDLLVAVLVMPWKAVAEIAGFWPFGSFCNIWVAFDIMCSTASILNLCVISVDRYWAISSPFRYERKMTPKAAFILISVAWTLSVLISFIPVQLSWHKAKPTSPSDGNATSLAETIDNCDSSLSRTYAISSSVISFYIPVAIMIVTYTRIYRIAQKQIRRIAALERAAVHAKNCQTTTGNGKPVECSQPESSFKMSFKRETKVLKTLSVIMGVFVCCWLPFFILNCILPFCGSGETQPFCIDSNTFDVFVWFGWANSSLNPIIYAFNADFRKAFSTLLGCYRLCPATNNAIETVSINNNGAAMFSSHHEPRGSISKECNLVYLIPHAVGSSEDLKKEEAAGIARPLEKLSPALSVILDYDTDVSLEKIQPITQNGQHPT
T2 sequence (P28223 whole entry): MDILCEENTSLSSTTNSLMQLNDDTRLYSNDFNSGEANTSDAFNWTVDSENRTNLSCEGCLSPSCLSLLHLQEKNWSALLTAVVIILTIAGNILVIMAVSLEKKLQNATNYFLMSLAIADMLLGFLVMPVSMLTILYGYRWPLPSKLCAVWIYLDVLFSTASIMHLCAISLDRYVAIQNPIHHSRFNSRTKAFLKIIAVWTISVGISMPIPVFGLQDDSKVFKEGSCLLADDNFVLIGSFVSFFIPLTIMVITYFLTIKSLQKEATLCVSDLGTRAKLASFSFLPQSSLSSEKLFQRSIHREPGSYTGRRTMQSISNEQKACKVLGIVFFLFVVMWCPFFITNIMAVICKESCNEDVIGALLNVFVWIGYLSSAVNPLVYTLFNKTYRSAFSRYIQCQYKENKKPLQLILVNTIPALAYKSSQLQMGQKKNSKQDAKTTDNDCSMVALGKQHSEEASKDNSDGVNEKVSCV
T6 sequence (P21918 whole entry): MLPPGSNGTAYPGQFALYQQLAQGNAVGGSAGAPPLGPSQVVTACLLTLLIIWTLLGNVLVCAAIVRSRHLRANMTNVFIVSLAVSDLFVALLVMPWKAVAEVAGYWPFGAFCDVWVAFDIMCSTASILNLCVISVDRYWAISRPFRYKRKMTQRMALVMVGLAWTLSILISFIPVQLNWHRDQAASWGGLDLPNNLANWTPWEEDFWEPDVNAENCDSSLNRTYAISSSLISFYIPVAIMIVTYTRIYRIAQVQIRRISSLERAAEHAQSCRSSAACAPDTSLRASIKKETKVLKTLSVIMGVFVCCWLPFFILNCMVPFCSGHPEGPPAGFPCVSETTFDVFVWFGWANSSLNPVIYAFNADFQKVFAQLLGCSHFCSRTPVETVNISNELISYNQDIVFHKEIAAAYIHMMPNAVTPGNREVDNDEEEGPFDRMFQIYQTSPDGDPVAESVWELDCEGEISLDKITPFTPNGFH
T4 sequence (P07550 whole entry): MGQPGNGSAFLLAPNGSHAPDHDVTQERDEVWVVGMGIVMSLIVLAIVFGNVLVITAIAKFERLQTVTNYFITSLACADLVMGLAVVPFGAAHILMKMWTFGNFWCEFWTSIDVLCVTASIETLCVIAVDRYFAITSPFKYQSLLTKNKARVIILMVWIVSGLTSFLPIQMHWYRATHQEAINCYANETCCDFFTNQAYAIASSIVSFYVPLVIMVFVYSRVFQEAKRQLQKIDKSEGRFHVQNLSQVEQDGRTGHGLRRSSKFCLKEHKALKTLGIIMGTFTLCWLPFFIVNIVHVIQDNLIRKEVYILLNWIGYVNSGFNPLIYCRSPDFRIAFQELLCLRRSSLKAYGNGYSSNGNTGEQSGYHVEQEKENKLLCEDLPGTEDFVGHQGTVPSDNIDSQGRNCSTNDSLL

With `CCc1ccc(OC)c(C(=O)NC[C@@H]2CCCN2CC)c1O` [dechloroeticlopride, (S)-3-Ethyl-N-[(1-ethylpyrrolidin-2-yl)methyl]-2-hydroxy-6-methoxybenzamide, reference compound], the Ki in series [1] is 11000 ± 3600 nM; in series [2], 270 ± 28 nM; in [3], 100 ± 36 nM; in series [4], 8900 ± 3000 nM; on D2 and D3 receptors (range over D2L, D2S, D3, stated in text), 1.2 to 2.4 nM; in series [5], 1800 ± 420 nM. For the same compound, the affinity in series [6], expressed as Ki, was 49000 ± 17000 nM. Also, the “difference in affinity, uncaged dechloroeticlopride over 4, 5 and 6” value with D2 and D3 receptors (at D2S and D3, radioligand displacement curves) was “more than 100 fold”.

On to `CCc1ccc(OC)c(C(=O)NC[C@@H]2CCCN2CC)c1OCc1ccccc1[N+](=O)[O-]` [compound 4, (S)-3-Ethyl-N-[(1-ethylpyrrolidin-2-yl)methyl]-6-methoxy-2-[(2-nitrobenzyl)oxy]benzamide], for which the “quantum yield φ for photolytic liberation of dechloroeticlopride” value in [7] came out at 0.5%. In series [7] (irradiation time 10 min), the “quantum yield ϕ” value is reported as 2.9% and the “yield of liberated dechloroeticlopride” value amounted to 11%. In series [7] (irradiation time 30 min), the “quantum yield ϕ” value stood at 1.2% and the “yield of liberated dechloroeticlopride” value was found to be 16%. In series [8], the “remaining D2S promoted signalling (IP accumulation) after irradiation in the cellular system” value is reported as below 5%.

As to `CCc1ccc(OC)c(C(=O)NC[C@@H]2CCCN2CC)c1OCc1cc(OC)c(OC)cc1[N+](=O)[O-]` [compound 5], the “quantum yield φ for photolytic liberation of dechloroeticlopride” value in [7] is given as 2.1%. Moreover, in series [7] (irradiation time 10 min), the “quantum yield ϕ” value is recorded as 0.7% and the “yield of liberated dechloroeticlopride” value was 17%. Further, in series [7] (irradiation time 30 min), the “quantum yield ϕ” value turned out to be 0.3% and the “yield of liberated dechloroeticlopride” value is 22%. In series [8], the “remaining D2S promoted signalling (IP accumulation) after irradiation in the cellular system” value is on record as “about 35%”.

These data come from publication PMC6972920, “Structure-based development of caged dopamine D2/D3 receptor antagonists” (Scientific Reports, 2020).
